# Data reported in patent US20230107742A1, “SYNERGISTIC EFFECTS, AUGMENTING ANTIMICROBAL EFFECTS OF LIPIDS” (CAPRETTO EHF., priority 2016, published 2023).
# Tests used:
# [1] = system: Enveloped viruses, such as HSV-1, VSV and visna virus; settings: more active than the free acid; cited from earlier work
# [2] = system: Streptococcus pneumoniae (ATCC 49619); test: Agar petri dish test, plates wetted with 20 μl formulation, read after 24 hours; settings: ethanol 5% in mPEG 95% (control)
# [3] = system: Haemophilus influenza (NCTC 8468); test: as above; type: cell-based; settings: ethanol 5% in mPEG 95% (control)
# [4] = system: Staphylococcus aureus (ATCC 25923); test: as above; settings: ethanol 5% in mPEG 95% (control)
# Experimental: Formulations according to the invention were tested towards three bacterial strains: Staphylococcus aureus (ATCC 25923), Streptococcus pneumoniae (ATCC 49619), Haemophilus influenza (NCTC 8468). The bacteria were distributed in a thin layer across a petri dish with agar. Two plates were wetted with 20 μl of each formulation. The bacteria were allowed to grow at 37° C. for 24 hours. H. influenzae and S. pneumoniae were grown under CO2, but S. aureus was grown in normal atmosphere.
# Readings of results were carried out 24 hours later.
Compound,"virucidal activity relative to the corresponding free fatty acid (capric, lauric acid) [1] [fold]",effect of ethanol alone against Streptococcus pneumoniae [2],effect of ethanol alone against Haemophilus influenza [3],effect of ethanol alone against Staphylococcus aureus [4]
CCCCCCCCCCCC(=O)OCC(O)CO (centres unmarked) [lauric acid 1-monoglyceride],10,–,–,–
CCO [ethanol],–,essentially no effect,essentially no effect,essentially no effect
"CCCCCCCCCC(=O)OCC(O)CO (centres unmarked) [Capric acid 1-monoglyceride, capric acid 1-monoglyceride]",10,–,–,–
